From ChEMBL document CHEMBL1152934, “Quinazolindione derivatives as potent 5-HT3A receptor antagonists” (Bioorg Med Chem, 2009) come the findings set out here.

SMILES strings stand for the structures.

The target of this assay is Voltage-dependent T-type calcium channel subunit alpha-1G (Homo sapiens, UniProt O43497). Kind of assay: Antagonist activity against T-type calcium channel alpha1G. The class given is functional.
Voltage-dependent T-type calcium channel subunit alpha-1G, sequence (O43497 whole entry): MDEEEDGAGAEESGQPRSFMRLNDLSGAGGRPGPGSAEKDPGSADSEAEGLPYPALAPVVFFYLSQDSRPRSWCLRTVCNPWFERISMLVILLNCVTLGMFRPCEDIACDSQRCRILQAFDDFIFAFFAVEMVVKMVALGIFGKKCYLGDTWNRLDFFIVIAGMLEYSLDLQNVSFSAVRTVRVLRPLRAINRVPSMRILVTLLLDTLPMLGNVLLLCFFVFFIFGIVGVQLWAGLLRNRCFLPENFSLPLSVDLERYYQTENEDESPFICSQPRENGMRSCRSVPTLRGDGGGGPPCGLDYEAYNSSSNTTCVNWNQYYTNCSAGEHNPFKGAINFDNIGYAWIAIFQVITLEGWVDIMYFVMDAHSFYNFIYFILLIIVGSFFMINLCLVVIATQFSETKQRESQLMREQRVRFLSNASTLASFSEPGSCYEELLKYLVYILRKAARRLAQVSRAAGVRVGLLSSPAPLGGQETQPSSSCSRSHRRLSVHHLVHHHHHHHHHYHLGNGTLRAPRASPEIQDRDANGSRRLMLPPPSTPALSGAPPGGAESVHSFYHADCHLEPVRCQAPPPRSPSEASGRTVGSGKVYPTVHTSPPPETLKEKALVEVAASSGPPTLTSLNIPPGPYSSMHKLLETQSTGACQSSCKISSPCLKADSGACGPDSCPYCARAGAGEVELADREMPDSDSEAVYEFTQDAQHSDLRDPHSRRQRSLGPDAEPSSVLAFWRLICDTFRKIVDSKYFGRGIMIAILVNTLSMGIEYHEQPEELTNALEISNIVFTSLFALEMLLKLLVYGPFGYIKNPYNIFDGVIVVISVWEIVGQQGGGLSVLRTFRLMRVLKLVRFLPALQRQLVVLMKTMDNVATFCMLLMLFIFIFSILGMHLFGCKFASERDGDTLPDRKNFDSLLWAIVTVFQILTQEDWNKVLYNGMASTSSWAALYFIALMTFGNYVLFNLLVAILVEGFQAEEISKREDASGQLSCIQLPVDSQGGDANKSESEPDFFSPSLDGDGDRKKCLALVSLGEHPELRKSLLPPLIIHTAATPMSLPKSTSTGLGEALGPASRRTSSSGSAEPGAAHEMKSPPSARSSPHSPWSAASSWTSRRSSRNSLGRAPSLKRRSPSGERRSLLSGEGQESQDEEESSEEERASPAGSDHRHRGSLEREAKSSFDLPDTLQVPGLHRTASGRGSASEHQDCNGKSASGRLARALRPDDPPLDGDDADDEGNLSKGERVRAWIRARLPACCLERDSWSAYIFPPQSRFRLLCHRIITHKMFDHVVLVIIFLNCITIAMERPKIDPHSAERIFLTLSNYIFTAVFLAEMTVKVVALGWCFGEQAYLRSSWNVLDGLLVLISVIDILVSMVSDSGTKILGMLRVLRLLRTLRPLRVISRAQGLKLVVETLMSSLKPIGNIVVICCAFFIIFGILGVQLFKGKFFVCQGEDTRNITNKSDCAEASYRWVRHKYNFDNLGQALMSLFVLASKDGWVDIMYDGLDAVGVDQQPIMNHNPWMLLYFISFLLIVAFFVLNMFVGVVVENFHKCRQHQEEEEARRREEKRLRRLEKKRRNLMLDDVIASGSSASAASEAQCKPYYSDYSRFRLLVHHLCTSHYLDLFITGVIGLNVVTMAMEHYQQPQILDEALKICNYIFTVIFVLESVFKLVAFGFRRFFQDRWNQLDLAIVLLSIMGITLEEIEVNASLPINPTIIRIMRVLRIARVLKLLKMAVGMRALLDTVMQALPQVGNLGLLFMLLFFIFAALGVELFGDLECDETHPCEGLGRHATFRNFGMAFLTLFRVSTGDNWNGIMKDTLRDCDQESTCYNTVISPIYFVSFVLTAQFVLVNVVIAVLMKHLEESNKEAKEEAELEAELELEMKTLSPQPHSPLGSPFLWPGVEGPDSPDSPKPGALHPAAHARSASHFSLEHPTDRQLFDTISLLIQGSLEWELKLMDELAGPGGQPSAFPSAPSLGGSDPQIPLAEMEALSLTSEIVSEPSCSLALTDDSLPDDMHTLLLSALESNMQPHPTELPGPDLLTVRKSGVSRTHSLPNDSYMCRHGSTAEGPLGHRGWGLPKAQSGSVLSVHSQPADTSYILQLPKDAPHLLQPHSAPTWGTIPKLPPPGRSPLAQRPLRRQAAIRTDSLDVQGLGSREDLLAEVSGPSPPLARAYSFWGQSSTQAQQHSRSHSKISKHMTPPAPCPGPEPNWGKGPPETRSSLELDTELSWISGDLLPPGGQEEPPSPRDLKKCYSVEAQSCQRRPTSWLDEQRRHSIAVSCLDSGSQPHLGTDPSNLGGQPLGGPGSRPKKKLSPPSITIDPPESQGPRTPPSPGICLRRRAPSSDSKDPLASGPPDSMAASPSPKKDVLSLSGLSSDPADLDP
Take `CC1CCCCN1CCNC(=O)c1ccc2c(=O)n(Cc3ccc(Cl)cc3)c(=O)[nH]c2c1` (stereo not drawn): the IC50 entry was “Not Active”.
In the case of `O=C(NCCCN1CCOCC1)c1ccc2c(=O)n(Cc3ccc(Cl)cc3)c(=O)[nH]c2c1`, the IC50 result is reported as “Not Active”.
`COc1ccccc1Cn1c(=O)[nH]c2cc(C(=O)NCCN3CCCCC3)ccc2c1=O`: the IC50 result is listed as “Not Active”.
The same measure for `O=C(NCCN1CCCCC1)c1ccc2c(=O)n(-c3ccc(F)cc3)c(=O)[nH]c2c1`: “Not Active”.
The same measure for `COc1ccc(-n2c(=O)[nH]c3cc(C(=O)NCCN4CCCCC4)ccc3c2=O)cc1`: “Not Active”; for `Cn1c(=O)[nH]c2cc(C(=O)NCCN3CCCCC3)ccc2c1=O`: “Not Active”.
`COc1ccc(Cn2c(=O)[nH]c3cc(C(=O)NCCN4CCCCC4)ccc3c2=O)cc1`: the IC50 result was “Not Active”.
As for `O=C(NCCN1CCCCC1)c1ccc2c(=O)n(Cc3ccccc3F)c(=O)[nH]c2c1`, the entry is “Not Active”.
As for `COc1cccc(Cn2c(=O)[nH]c3cc(C(=O)NCCN4CCCCC4)ccc3c2=O)c1`, the entry is “Not Active”; as for `CC1CCCCN1CCCNC(=O)c1ccc2c(=O)n(Cc3ccc(Cl)cc3)c(=O)[nH]c2c1` (stereo not drawn), “Not Active”.
The same measure for `O=C(NCCN1CCOCC1)c1ccc2c(=O)n(Cc3ccc(F)cc3)c(=O)[nH]c2c1`: “Not Active”; for `CC1CCCCN1CCCNC(=O)c1ccc2c(=O)n(C3CCCCC3)c(=O)[nH]c2c1` (stereo not drawn): “Not Active”.
Turning to `O=C(NCCN1CCOCC1)c1ccc2c(=O)n(-c3ccc(F)cc3)c(=O)[nH]c2c1`, the IC50 entry was “Not Active”.
For `O=C(NCCN1CCCCC1)c1ccc2c(=O)n(Cc3ccccc3Cl)c(=O)[nH]c2c1`, the IC50 result is listed as “Not Active”.
Regarding `CCC1CCCCN1CCCNC(=O)c1ccc2c(=O)n(Cc3ccc(Cl)cc3)c(=O)[nH]c2c1` (stereo not drawn), the IC50 result is listed as “Not Active”.
As to `O=C(NCCN1CCOCC1)c1ccc2c(=O)n(Cc3ccc(Cl)cc3)c(=O)[nH]c2c1`, the IC50 entry was “Not Active”.
For `CCCn1c(=O)[nH]c2cc(C(=O)NCCN3CCCCC3)ccc2c1=O`, the IC50 result is recorded as “Not Active”.
The same measure for `O=C(NCCN1CCCCC1)c1ccc2c(=O)n(C3CCCCC3)c(=O)[nH]c2c1`: “Not Active”.
